Measured values: patent US10517934B2, “Compositions and methods for the treatment of photoaging and other conditions” (PRO TRANSIT NANOTHERAPY LLC, priority 2014, dated 2019)

Test system: UV-induced free radicals in porcine ear skin
Experiment: Skin antioxidative protection/retention (SAP/SAR) by ESR spectroscopy in porcine ear skin exposed to UV
Design: species or system pig
Excerpt: Freshly excised porcine ear skin is close to human skin that is routinely used as a model for testing the protective efficacy of several topically applied antioxidants against UV-induced free radicals. Porcine skin biopsies obtained from local slaughterhouse (pig skin, 6 month old animals, external lobe of the ears) were used for the experiments. The skin was washed, the subdermal fat was removed and cut into 2×2 cm pieces before the application of test samples on the epidermal layer.
The skin has an intrinsic antioxidant protection potential (enzymatic and non-enzymatic), which can be measured by electron spin resonance (ESR) spectroscopy. If an active test sample applied to the stratum corneum penetrates to deep layers of skin, it increases the skin antioxidative protection (SAP). Labeling skin epidermis and dermis (by soaking skin on dermis side) with a semi-stable test radical (TEMPO, 2,2,6,6-tetramethyl piperidine-N-oxyl) that reacts with free radicals produces signal intensities detected by ESR spectroscopy, which can be quantitatively expressed as percent SAP values to determine the antioxidant activity in skin (epidermis and dermis).
Using SAP values from ESR spectroscopy, skin antioxidative retention (SAR) potential of a test cosmetic formulation can be effectively measured using appropriate radical probes. SAR value indicates the antioxidative activity of the skin after free radical damage (UV radiation), which evaluates the protective effectiveness of topically applied antioxidants/free radical scavengers. In addition to the assessment of antioxidative activity in skin, the SAR value also validates the penetration of the topically applied antioxidants. The SAR values are expressed in percent and are calculated using the following formula: SAR [%]=(SAPUV,Product−SAPUV,Placebo)/(SAPPlacebo−SAPUV,Placebo).
The study was conducted blinded and the operator was supplied with formulations that were coded. Pro-NP™, control NPs, or placebo (mixed at 2% w/w in anhydrous lotion) were applied on the skin (2 mg/cm^2) and allowed to penetrate for definite times (10 minutes, 30 minutes, 4 hours or 18 hours). The skin was then exposed to UV radiation (0.6 MED; Minimal Erythema Dose) to induce free radicals that lead to a decrease in the SAP values up to 59% of the initial value (without UV treatment) of the untreated skin. Irradiation source: UV solar simulator 300 W Oriel (Newport). The irradiances as integrated value over the spectral ranges were E (UVB=280-320)=23.5 W/m^2 and E (UVA=320-400 nm)=180 W/m^2. The maintenance of the SAP values after UV exposure due to the test product is expressed by the SAR values.

In the case of Tocopherol [1% Tocopherol], the “SAR (%) 10 mins” value (2% w/w in anhydrous lotion, 2 mg/cm^2, 10 mins penetration, UV 0.6 MED) is reported as 20%, the “SAR (%) 30 mins” value (30 mins penetration, UV 0.6 MED) is reported as 6% and the “SAR (%) 4 hrs” value (4 hrs penetration, UV 0.6 MED) is reported as 0%. The “SAR (%) 18 hrs” value (18 hrs penetration, UV 0.6 MED) was 0%, the “protection after UV” value (after 10 minutes application) was 24% and the “protection after UV” value (after 30 minutes) was “very weak protection”. For the same substance, the “increase of the SAP values before UV irradiation with respect to untreated skin” value (without UV irradiation) was 29%.
